Results published in patent US20260083865A1, “PROSTATE SPECIFIC MEMBRANE ANTIGEN (PSMA) LIGANDS AND USE THEREOF” (priority 2022, published 2026).
Numbered stars: 1 amine (or outer) side, 2 acyl side, 3 side chain; on linkers, the order of the positions; unused ones are H or OH. Bridge positions count the residues as written; N and C are the ends. Square brackets hold non-standard residues; d marks the D form. Peptide text beside a SMILES is read from it. * marks the point of attachment. DOTA = O=C(O)CN1CCN(CC(=O)O)CCN(CC(=O)*)CCN(CC(=O)O)CC1; Phe(4-Cl) = N[C@@H](Cc1ccc(Cl)cc1)C(=O)O; Dap(CONH2) = NC(=O)NC[C@H](N)C(=O)O; Ethylenediamine = C(CN[*:2])N[*:1]; Hyp = O=C(O)[C@@H]1C[C@@H](O)CN1; X5 = O=C(c1ccc(CN[*:1])nc1)[*:2]; Tle = CC(C)(C)[C@H](N)C(=O)O; Deg = CCC(N)(CC)C(=O)O; Aib = CC(C)(N)C(=O)O

Experiments:
[1] = target: T1, PSMA-expressing C4-2 cells (Homo sapiens, UniProt Q04609); test: FACS binding assay (competition with 50 nM PSM-0183); details: FACS binding, C4-2 cells, competition with 50 nM PSM-0183; category; read-out: pIC50 [C4-2] CAT (converted)
T1 construct: PSMA-expressing C4-2 cells (ATCC, Cat. No. CRL-3314) were cultured in RPMI-1640; host or cells: C4-2 cells
T1 sequence (Q04609 whole entry): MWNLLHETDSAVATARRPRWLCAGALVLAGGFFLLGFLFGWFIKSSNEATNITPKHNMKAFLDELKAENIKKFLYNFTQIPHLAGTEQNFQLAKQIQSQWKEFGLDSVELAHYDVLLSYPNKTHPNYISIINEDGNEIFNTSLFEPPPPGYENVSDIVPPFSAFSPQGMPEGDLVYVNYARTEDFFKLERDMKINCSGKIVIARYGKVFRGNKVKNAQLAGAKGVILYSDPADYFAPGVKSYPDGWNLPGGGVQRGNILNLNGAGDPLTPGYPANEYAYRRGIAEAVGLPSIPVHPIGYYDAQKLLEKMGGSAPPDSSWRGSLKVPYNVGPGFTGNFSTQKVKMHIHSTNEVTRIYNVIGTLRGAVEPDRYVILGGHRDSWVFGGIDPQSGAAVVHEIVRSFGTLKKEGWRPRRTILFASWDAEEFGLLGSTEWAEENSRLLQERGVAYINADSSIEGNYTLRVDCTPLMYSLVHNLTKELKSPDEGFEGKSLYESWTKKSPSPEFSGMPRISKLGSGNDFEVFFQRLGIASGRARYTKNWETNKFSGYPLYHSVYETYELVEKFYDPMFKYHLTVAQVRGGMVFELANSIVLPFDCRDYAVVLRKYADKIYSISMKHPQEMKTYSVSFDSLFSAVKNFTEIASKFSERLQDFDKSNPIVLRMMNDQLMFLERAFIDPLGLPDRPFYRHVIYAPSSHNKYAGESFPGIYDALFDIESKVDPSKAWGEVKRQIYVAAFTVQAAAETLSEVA
Protocol: In order to determine binding of compounds according to the present invention to PSMA-expressing cells, a FACS binding assay was established.
PSMA-expressing C4-2 cells (ATCC, Cat. No. CRL-3314) were cultured in RPMI-1640 (Pan Biotech, Cat. No. P04-18050) including 10% fetal calf serum (Biochrom) and 100 U/ml penicillin and 100 μg/mL streptomycin (Sigma, Cat. No. P0781). Cells were detached with Accutase (Biolegend, Cat. No. BLD-423201) and washed in FACS buffer (PBS (Sigma, Cat. No. D8537) including 1% fetal calf serum). Cells were diluted in FACS buffer to a final concentration of 500,000 cells per mL. 200 μL of the cell suspension were transferred to a u-shaped non-binding 96-well plate (Greiner Bio-One, Cat. No. 650901) and cells were washed in ice-cold FACS buffer.
For IC50 determination, C4-2 cells were incubated with 50 nM PSM-0183 (Ac-Thr-Aib-Phe[Cys-Lys-Arg-Aib-Asn-Cys]-Tle-Thr-Asp-Ttds-Ttds-AF488N3K-NH2) in the presence of increasing concentrations of test compounds at 4° C. for 1 hour. After two wash steps with ice-cold FACS buffer, cells were analyzed in an Attune NxT flow cytometer. Median fluorescence intensities (MFI) of the FITC/AF488-channel were calculated by Attune NxT software. MFI values were plotted against peptide concentration and four parameter logistic (4PL) curve fitting and IC50/pIC50 calculations were performed using ActivityBase software (IDBS).

[2] = target: T2, Fc-fusion protein of human PSMA (hPSMA-Fc) (Homo sapiens, UniProt Q04609); test: Surface plasmon resonance assay (Biacore T200, single cycle kinetic); assay type: binding; details: SPR, hPSMA-Fc, single cycle kinetic, 25° C.; category; read-out: pKD CAT (converted)
T2 construct: purchased Acro Biosystems PSA-H5264
T2 sequence (Q04609 44-750 limits assumed): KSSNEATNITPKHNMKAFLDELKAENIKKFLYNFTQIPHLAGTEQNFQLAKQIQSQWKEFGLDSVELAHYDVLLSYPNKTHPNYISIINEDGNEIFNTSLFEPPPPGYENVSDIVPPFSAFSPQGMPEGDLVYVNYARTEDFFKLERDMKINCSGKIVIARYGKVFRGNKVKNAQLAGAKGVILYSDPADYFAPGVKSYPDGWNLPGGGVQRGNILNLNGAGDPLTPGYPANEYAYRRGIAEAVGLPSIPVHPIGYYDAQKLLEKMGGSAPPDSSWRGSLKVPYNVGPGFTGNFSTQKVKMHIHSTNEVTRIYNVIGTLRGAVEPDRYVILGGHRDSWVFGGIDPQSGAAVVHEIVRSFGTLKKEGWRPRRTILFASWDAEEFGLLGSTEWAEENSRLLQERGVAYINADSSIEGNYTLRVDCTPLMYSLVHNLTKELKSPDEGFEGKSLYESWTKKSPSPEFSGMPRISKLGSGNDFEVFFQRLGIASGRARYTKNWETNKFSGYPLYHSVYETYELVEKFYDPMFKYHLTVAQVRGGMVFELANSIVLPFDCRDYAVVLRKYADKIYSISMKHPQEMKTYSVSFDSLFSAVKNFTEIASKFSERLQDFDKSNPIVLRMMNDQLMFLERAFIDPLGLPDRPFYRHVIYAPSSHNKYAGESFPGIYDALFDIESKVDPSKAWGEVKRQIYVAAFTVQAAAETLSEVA
Protocol: Surface plasmon resonance (SPR) studies were performed using a Biacore™ T200 SPR system. Briefly, polarized light is directed towards a gold-labeled sensor surface, and minimum intensity reflected light is detected. The angle of reflected light changes as molecules bind and dissociate.
Fc-fusion protein of human PSMA (hPSMA-Fc, Acro Biosystems, Cat #PSA-H5264) was captured on a Fc-capture chip (Biacore™ CM5 sensor chip coated with ˜300 RU of an Fc-binding peptide). hPSMA-Fc was diluted in Running Buffer (HBST, 0.1% DMSO) to a final concentration of 100 nM and then flushed over the Fc-capture chip to immobilized ˜1000 RUs.
Stock solutions of test compounds were prepared by dissolving each compound in DMSO. DMSO stock solution were diluted 1:1000 in Running Buffer without DMSO. Further sequential dilutions were made with Running Buffer containing 0.1% DMSO. SPR binding analyses were performed in Single Cycle Kinetic (SCK) mode at 25° C. Flow cell coated with the Fc-binding peptide only served as reference flowcell. After each SCK run, hPSMA-Fc was removed with 10 mM glycine buffer, pH 1.5.
In between every three SCK measurements, a blank run with Running Buffer instead of test compound was included to correct for baseline drifts (double blanking method).
Table 5 describes the protocol steps for Fc-fusion target capturing and assessment of the binding kinetics.
For each test compound, SPR raw data in the form of resonance units (RU) were plotted as sensorgrams using the Biacore™ T200 control software. The signal from the blank sensorgram was subtracted from that of the test compound sensorgram (blank corrected). The blank corrected sensorgram was corrected for baseline drift by subtracting the sensorgram of a SCK run without the test compound (running buffer only). The dissociation constant (KD) was calculated from Blank-normalized SPR data using the 1:1 Langmuir binding model from the Biacore™ Insight Evaluation software. The pKD value (negative decadic logarithm of dissociation constant) was calculated using Microsoft Excel.

| Compound | IC50 [1] [nM] | Kd [2] [nM] |
| --- | --- | --- |
| CC(=O)N[C@H](C(=O)NC(C)(C)C(=O)N[C@@H](Cc1ccccc1)C(=O)N[C@H]1CSSC[C@@H](C(=O)N[C@H](C(=O)N[C@H](C(=O)N[C@@H](CC(=O)O)C(N)=O)[C@@H](C)O)C(C)(C)C)NC(=O)[C@H](CC(N)=O)NC(=O)[C@H](C)NC(=O)[C@H](CNC(N)=O)NC(=O)[C@H](CCCCN)NC1=O)[C@@H](C)O [PSM-0180, Ac-Thr-Aib-Phe-[Cys-Lys-Gln-Ala-Asn-Cys]-Tle-Thr-Asp-NH2] (Ac-T[Aib]FCK[Dap(CONH2)]ANC[Tle]TD-NH2; disulfide 4-9) | < 200 | 12.6 to 126 |
| CC(=O)N[C@H](C(=O)NC(C)(C)C(=O)N[C@@H](Cc1ccccc1)C(=O)N[C@H]1CSSC[C@@H](C(=O)N[C@H](C(=O)N[C@H](C(=O)N[C@@H](CC(=O)O)C(N)=O)[C@@H](C)O)C(C)(C)C)NC(=O)[C@H](CC(N)=O)NC(=O)[C@@H]2C[C@@H](O)CN2C(=O)[C@H](CCCNC(=N)N)NC(=O)[C@H](CCCCN)NC1=O)[C@@H](C)O [PSM-0181, Ac-Thr-Aib-Phe-[Cys-Lys-Arg-Hyp-Asn-Cys]-Tle-Thr-Asp-NH2] (Ac-T[Aib]FCKR[Hyp]NC[Tle]TD-NH2; disulfide 4-9) | < 200 | < 12.6 |
| CCCC[C@H](NC(=O)[C@@H]1CSSC[C@H](NC(=O)[C@H](Cc2ccccc2)NC(=O)[C@H](C)NC(=O)[C@@H](NC(C)=O)[C@@H](C)O)C(=O)N[C@@H](CCCCN)C(=O)N[C@@H](CCCNC(=N)N)C(=O)N[C@@H](C)C(=O)N[C@@H](CC(N)=O)C(=O)N1)C(=O)N[C@@H](C(=O)N[C@H](CC(=O)O)C(N)=O)[C@H](C)O [PSM-0182, Ac-Thr-Ala-Phe-[Cys-Lys-Arg-Ala-Asn-Cys]-Nle-thr-Asp-NH2] | 1260 to 3160 | > 501 |
| C[C@@H](O)[C@H](NC(=O)CN1CCN(CC(=O)O)CCN(CC(=O)O)CCN(CC(=O)O)CC1)C(=O)NC(C)(C)C(=O)N[C@@H](Cc1ccccc1)C(=O)N[C@H]1CSSC[C@@H](C(=O)N[C@H](C(N)=O)C(C)(C)C)NC(=O)[C@H](CC(N)=O)NC(=O)C(C)(C)NC(=O)[C@H](CCCNC(=N)N)NC(=O)[C@H](CCCCN)NC1=O [PSM-0184, DOTA-Thr-Aib-Phe-[Cys-Lys-Arg-Aib-Asn-Cys]-Tle-NH2] ({DOTA}-T[Aib]FCKR[Aib]NC[Tle]-NH2; disulfide 4-9) | < 200 | 12.6 to 126 |
| CC(=O)NCc1ccc(C(=O)NC(C)(C)C(=O)N[C@@H](Cc2ccc(Cl)cc2)C(=O)N[C@H]2CSSC[C@@H](C(=O)N[C@H](C(=O)NCCNC(=O)CN3CCN(CC(=O)O)CCN(CC(=O)O)CCN(CC(=O)O)CC3)C(C)(C)C)NC(=O)[C@H](CC(N)=O)NC(=O)C(C)(C)NC(=O)[C@H](CCCNC(=N)N)NC(=O)[C@H](CCCCN)NC2=O)cn1 [PSM-0186, Ac-Pamp-Aib-Pcf-[Cys-Lys-Arg-Aib-Asn-Cys]-Tle-en-DOTA] (Ac-[X5][Aib][Phe(4-Cl)]CKR[Aib]NC[Tle]-{Ethylenediamine-DOTA}; disulfide 4-9) | < 200 | < 12.6 |
| CCC(CC)(NC(=O)[C@@H](NC(C)=O)[C@@H](C)O)C(=O)N[C@@H](Cc1ccccc1)C(=O)N[C@H]1CSSC[C@@H](C(=O)N[C@H](C(=O)N[C@H](C(N)=O)[C@@H](C)O)C(C)(C)C)NC(=O)[C@H](CC(N)=O)NC(=O)C(C)(C)NC(=O)[C@H](CCCNC(=N)N)NC(=O)[C@H](CCCCN)NC1=O [PSM-0187, Ac-Thr-Deg-Phe-[Cys-Lys-Arg-Aib-Asn-Cys]-Tle-Thr-NH2] (Ac-T[Deg]FCKR[Aib]NC[Tle]T-NH2; disulfide 4-9) | < 200 | < 12.6 |
